These results are taken from PMC6017107 (Molecules : A Journal of Synthetic Chemistry and Natural …, 2018).

For data set [1] the following is noted: cited from earlier work.
Data set [2] is described as follows: Plasma pharmacokinetics of doxorubicin i.v. in mice pretreated with phytochemical P-gp modulators. The conditions noted are these: male, ICR, mouse, in vivo, iv, 1 mg/kg, i.v. 1 mg/kg; for C0: C0 of doxorubicin; for clearance: CL of doxorubicin; for half-life: t1/2 of doxorubicin. The protocol:
(§1) Male ICR mice (age: 5–6 weeks old; body weight: 30 ± 2 g) were purchased from Samtako Co. (Osan, Gyeonggi-do, Korea), housed in plastic cages and given free access to a standard animal diet (Daejong, Seoul, Korea) and water. The environment was maintained under the following conditions: temperature, 23 ± 1 °C; 12-h light-dark cycle; and relative humidity, 50% ± 10%. The animals were acclimatized for a minimum period of 1 week and fasted overnight prior to experimentation.
(§2) The mice were randomly divided into four groups. Each group was pretreated with either control vehicle (a mixture of DMSO:PEG 400:distilled water; 5:45:50, v/v), piperine (10 mg/kg), capsaicin (5 mg/kg), or [6]-gingerol (5 mg/kg). The treatment solutions of piperine, capsaicin and [6]-gingerol were prepared by the dissolution of each compound in the DMSO:PEG 400:distilled water mixture at concentrations of 2, 1 and 1 mg/mL, respectively. The treatment solutions were administered intraperitoneally twice with τ = 60 min for control vehicle and piperine and τ = 30 min for capsaicin and [6]-gingerol. […] The physiological conditions of the animals were carefully monitored during the study.
(§3) The volume of injected dosing vehicle was 5 mL/kg. […] Plasma was harvested by centrifugation at 16,000× g for 10 min and immediately stored at −20 °C until analysis. […] All excised tissues were accurately weighed and homogenized (Tissue Tearor, Biospec Products Inc., Bartlesville, OK, USA) with appropriate volumes of isotonic saline. The obtained tissue homogenates were stored at −20 °C until analysis.
(§4) Sample analyses were conducted on an Agilent 6430 triple quadrupole mass spectrometer coupled with an Agilent 1200 HPLC (Agilent, Santa Clara, CA, USA). […] Chromatographic separation was performed using a binary gradient mobile phase composed of acetonitrile (A) and 0.05% formic acid (B) and programmed as follows: initial conditions, 20% A (0.3 mL/min) for 0.1 min and 80% A for 3 min; increased to 90% A in 0.1 min and maintained for 1 min; returned to the initial composition; followed by a 3.2-min equilibration step (1.5 min for 0.3 mL/min and then 1.7 min for 0.5 mL/min). The ESI source was operated in positive mode with curtain and nebulizer gas set at 10 and 20 psi, respectively. The capillary voltage and gas temperature were 4000 V and 300 °C, respectively.
(§5) The IS working solution (20 μL of 100 ng/mL IS solution for plasma and 50 μL of 100 ng/mL IS solution for tissue samples) and acetonitrile (50 μL for plasma and 80 μL for tissue samples) were added to 20 μL of plasma and 50 μL of tissue samples and mixed on a vortex mixer for 1 min. The mixture was then centrifuged at 16,000× g (Biofuge Fresco, Kendro, Osterode, Germany) for 10 min. For tissue samples, 100 μL of the supernatant was re-precipitated with an equal volume of acetonitrile and centrifuged at 16,000× g for 10 min. Finally, 50 μL distilled water was added to 50 μL of each supernatant, followed by mixing and injection of 10 μL of the sample mixture onto the LC-MS/MS. Data acquisition was performed with MassHunter Quantitative Analysis (Agilent, Santa Clara, CA, USA).
(§6) The pharmacokinetic parameters were determined by non-compartmental analysis using Phoenix® WinNonlin® 6.4 (Certara, L.P., Princeton, NJ, USA). As the procedure entailed destructive sampling, the non-compartmental analysis was performed by using the average plasma concentration vs. time data. These parameters included terminal half-life (t1/2), area under the plasma concentration-time curve from time zero to infinity (AUCinf), apparent volume of distribution during the terminal phase (Vz), the volume of distribution at steady state (Vss) and systemic clearance (CL).

The nature of data set [3]: in vivo. The conditions noted are these: for Increase of the Kp of doxorubicin in the kidney by pretreatment, comparing with control: 2 h after administration; for Increase of the Kp of doxorubicin in the liver by pretreatment: mice (matches 2 h values of Table 4). The protocol:
as §1, §2, §3, §4, §5, §6

A short description of data set [4]: Tissue distribution of phytochemicals after intraperitoneal administration. The following applies: mouse, in vivo, ip. The protocol:
as §1
The mice were randomly divided into four groups. Each group was pretreated with either control vehicle (a mixture of DMSO:PEG 400:distilled water; 5:45:50, v/v), piperine (10 mg/kg), capsaicin (5 mg/kg), or [6]-gingerol (5 mg/kg). […] The physiological conditions of the animals were carefully monitored during the study. […]
The IS working solution (20 μL of 100 ng/mL IS solution for plasma and 50 μL of 100 ng/mL IS solution for tissue samples) and acetonitrile (50 μL for plasma and 80 μL for tissue samples) were added to 20 μL of plasma and 50 μL of tissue samples and mixed on a vortex mixer for 1 min. […] Data acquisition was performed with MassHunter Quantitative Analysis (Agilent, Santa Clara, CA, USA).
The pharmacokinetic parameters were determined by non-compartmental analysis using Phoenix® WinNonlin® 6.4 (Certara, L.P., Princeton, NJ, USA). […]

A further data set relates to mice. The following applies: cited from earlier work.
Data set [5] can be described thus: in vivo. The protocol:
as §1, §2, §3, §4, §5, §6

The test system of data set [6] is MCF-7/DOX, A-549/DDP cells. The following applies: ref [30], cited from earlier work.
Data set [7] relates to P-gp. The following applies: cited from earlier work; for IC50: Caco-2 cells.
In the next data set the test system is ABC transporter genes. The following applies: MCF-7/DOX, A-549/DDP; ref [30]; cited from earlier work.
The next data set relates to P-gp, MRP1 and BCRP. The conditions noted are these: ref [30], cited from earlier work.
Another data set deals with KB-C2 cells. The following applies: substrate Vinblastine, ref [7]; cited from earlier work.
For data set [8], the system named is P-gp. The conditions noted are these: ref [7], cited from earlier work; for Effects on the P-gp mediated transport in vitro: KB-C2; for Increase of accumulation of rhodamine 123: KB-C2 cells.
A further data set concerns Caco-2 cells. The conditions noted are these: ref [6]; cited from earlier work.
Where [9] appears, read: male, ICR, mouse, in vivo, ip, 10 mg/kg.
The mark [10] stands for this setting: A-549/DDP, substrate Doxorubicin.
Setting [11] is: male, ICR, mouse, in vivo, ip, 5 mg/kg.

Entries after “also recorded” stand apart in the source; their conditions may differ. Where two headings read alike, the source gives them in different places.

Turning to `COc1cccc2c1C(=O)c1c(O)c3c(c(O)c1C2=O)C[C@@](O)(C(=O)CO)C[C@@H]3O[C@H]1C[C@H](N)[C@H](O)[C@H](C)O1` [Doxorubicin], the “Injected doxorubicin excreted in bile” value in data set [1] (bile duct-cannulated rats, ref [45]) is 33–35%. Besides, in [1] (bladder-cannulated rats, ref [45]), the “Injected doxorubicin eliminated via urine” value is listed as 4–8%. Further, in [1] (rats, within 3 h, ref [43]), the “Initial dose appearing in the bile as unchanged doxorubicin” value is “approximately 30%”. In addition, the C0 in [2] (pretreatment Capsaicin) stood at 4430 ng/mL; in data set [2] (pretreatment Control), 3980 ng/mL; in data set [2] (pretreatment Piperine), 3400 ng/mL; in data set [2] (pretreatment [6]-Gingerol) it was 4040 ng/mL. The clearance amounted to 25.2 mL/min/kg in data set [2] (pretreatment Capsaicin), 31 mL/min/kg in [2] (pretreatment Control), 25.6 mL/min/kg in [2] (pretreatment Piperine) and 28.8 mL/min/kg in data set [2] (pretreatment [6]-Gingerol). Moreover, the half-life was 13.3 h in data set [2] (pretreatment Capsaicin), 17.4 h in data set [2] (pretreatment Control), 15.7 h in data set [2] (pretreatment Piperine) and 15.5 h in data set [2] (pretreatment [6]-Gingerol). The Kp in “in vivo [3]” (male, ICR, mouse, in vivo, iv, 1 mg/kg, Doxorubicin Kp values) was over 35.4.
As for `O=C(/C=C/C=C/c1ccc2c(c1)OCO2)N1CCCCC1` [Piperine], the Kp at 2 h in [4] (male, ICR, 10 mg/kg) was found to be 1.69 ± 0.28. The LD50 with mice (mouse, in vivo, ip) is listed as 60 mg/kg. Besides, the area under the curve AUC(0-inf) in the data set “in vivo [5]” (setting [9]) turned out to be 9960 ng·h/mL. Further, the CL/F in the data set “in vivo [5]” (setting [9]) is 16.7 mL/min/kg. In the data set “in vivo [5]” (setting [9]), this molecule returned a Cmax of 5050 ng/mL. For the same molecule, the time to peak (Tmax) in “in vivo [5]” (setting [9]) is 0.75 h. In “in vivo [5]” (setting [9]), this molecule returned a Vd/F of 9.12 L/kg. Besides, the half-life in “in vivo [5]” (setting [9]) is 6.3 h. Also, the “Effects on the P-gp mediated transport in vitro” value in [6] (setting [10]) is “Increased cytotoxicity by reversing transporter mediated doxorubicin and mitoxantrone resistance”; in [6] (substrate Mitoxantrone) it was “Increased cytotoxicity by reversing transporter mediated doxorubicin and mitoxantrone resistance”; in the data set on P-gp [7] (Caco-2, L-MDR1, substrate [3H] Digoxin, ref [5]) it was “Inhibited P-gp mediated efflux transport”; with P-gp [7] (Caco-2, substrates Digoxin, Cyclosporin A, ref [4]) it was “Inhibited P-gp mediated efflux transport”; in the data set on ABC transporter genes, “Inhibited transcription of the corresponding ABC transporter genes”; with P-gp, MRP1 and BCRP (setting [10]) it was “Inhibited efflux activity of P-gp, MRP1 and BCRP”. For the same molecule, the “Effects on the P-gp mediated transport in vitro” value in the data set on P-gp, MRP1 and BCRP (MCF-7/DOX, substrates Rhodamine 123, Mitoxantrone) is “Inhibited efflux activity of P-gp, MRP1 and BCRP”. Also, the IC50 in the data set on P-gp [7] (cyclosporine A, ref [4], read-out: IC50, inhibition of transport of P-gp substrate cyclosporine A) was 74.1 µM; in the data set on P-gp [7] (digoxin, ref [4], read-out: IC50, inhibition of transport of P-gp substrate digoxin), 15.5 µM. Also, the “Increase of the Kp of doxorubicin in the kidney by pretreatment, comparing with control” value in the data set “in vivo [3]” (mice) was determined as 2.23 fold. For the same molecule, the “Increase of the Kp of doxorubicin in the liver by pretreatment” value in “in vivo [3]” is 5.44 fold.
As to `CCCCC[C@H](O)CC(=O)CCc1ccc(O)c(OC)c1` [[6]-Gingerol], the “Effects on the P-gp mediated transport in vitro” value in the data set on KB-C2 cells is on record as “Increased vinblastine cytotoxicity by inhibition of efflux transporter”. Also, in data set [4], the “Detection in brain, heart and testis” value was “not detected”. Besides, in the data set on mice (mouse, in vivo, ip), the LD50 is recorded as 58.1 mg/kg. In addition, in the data set “in vivo [5]” (setting [11]), the AUC(0-inf) was 66.3 ng·h/mL, the CL/F worked out at 1260 mL/min/kg, the peak concentration (Cmax) amounted to 153 ng/mL and the Detection in plasma entry is listed as “not detected 2–4 h after administration”. In addition, in “in vivo [5]” (setting [11]), the Tmax is 0.17 h, the Vd/F is 148 L/kg and the half-life is 1.36 h. Moreover, in the data set on P-gp [7] (Caco-2, L-MDR1, substrate [3H] Digoxin, ref [8]), the “Effects on the P-gp mediated transport in vitro” value is on record as “Inhibited P-gp mediated efflux transport”. The “Effects on the P-gp mediated transport in vitro” value in the data set on P-gp [7] (Caco-2, L-MDR1, substrate [3H] Digoxin, ref [8], listed as [6]-gingerol) is “inhibited P-gp-mediated digoxin transport”. The “Effects on the P-gp mediated transport in vitro” value in the data set with P-gp [8] (substrate Daunorubicin) was “Increased cellular accumulation”. Besides, the “Effects on the P-gp mediated transport in vitro” value in the data set with P-gp [8] (substrate Rhodamine 123) is on record as “Inhibited efflux transport”. Also, the “Increase of accumulation of rhodamine 123” value in the data set on P-gp [8] (in the presence of [6]-gingerol) is on record as 2.24 fold.
For `COc1cc(CNC(=O)CCCC/C=C/C(C)C)ccc1O` [Capsaicin], in the data set on KB-C2 cells, the “Effects on the P-gp mediated transport in vitro” value is “Increased vinblastine cytotoxicity by inhibition of efflux transporter”. For the same molecule, the LD50 in the data set with mice (i.p., mice, ref [57],[58]) is given as 7.6 mg/kg. Also, the Detection in plasma entry in the data set “in vivo [5]” (i.p. 5 mg/kg, mice, plasma) was “not detected 2–4 h after administration”. Also, in “in vivo [5]” (setting [11]), the total exposure AUC(0-inf) is 66.8 ng·h/mL, the CL/F is 1250 mL/min/kg, the Cmax came out at 119 ng/mL and the Tmax amounted to 0.17 h. Further, in “in vivo [5]” (setting [11]), the Vd/F was 35.7 L/kg and the half-life was 0.33 h. In addition, in the data set with Caco-2 cells, the Cytotoxicity entry is recorded as “no resulting cytotoxicity”. Further, the “Effects on the P-gp mediated transport in vitro” value in the data set with P-gp [7] (Caco-2, substrate [3H] Digoxin, ref [6]) was “inhibited digoxin efflux mediated by P-gp; also recorded: Inhibited P-gp mediated efflux transport”. For the same molecule, in the data set with P-gp [8] (substrate Daunorubicin), the “Effects on the P-gp mediated transport in vitro” value is “Increased cellular accumulation”. The “Effects on the P-gp mediated transport in vitro” value in the data set on P-gp [8] (substrate Rhodamine 123) was “Inhibited efflux transport”. Besides, the “Increase of accumulation of rhodamine 123” value with P-gp [8] (50 μmol/L capsaicin) is on record as 4 fold. For the same molecule, the “Increase of the Kp of doxorubicin in the brain by pretreatment” value in “in vivo [3]” (brain, 2 h, mice) was determined as 3.33 fold. Moreover, the “Increase of the Kp of doxorubicin in the kidney by pretreatment, comparing with control” value in the data set “in vivo [3]” (mice) is reported as 1.95 fold. Moreover, the “Increase of the Kp of doxorubicin in the liver by pretreatment” value in “in vivo [3]” stood at 6.21 fold.
